Converted amounts (≈) assume the structure as drawn.
Legend:
[1] = test system: Moloney murine sarcoma virus; assay: Antiviral activity against MSV in mouse C3H cells assessed as inhibition of virus-induced transformation after 6 days; type: functional, organism-based; settings: 144 h
[2] = Cytotoxicity against E6SM cells assessed as alteration in cell morphology; type: cell-based; settings: human
[3] = test system: Human immunodeficiency virus 2; type: functional, organism-based; settings: Human immunodeficiency virus 2, ROD, CCRF-CEM
[4] = Cytotoxicity against HeLa cells assessed as alteration in cell morphology; type: cell-based; settings: human
Sindbis virus = type: functional, organism-based; settings: Vero
[5] = Cytotoxicity against C3H cells assessed as alteration in cell morphology; type: cell-based; settings: mouse
[6] = Cytotoxicity against Vero cells assessed as alteration in cell morphology; type: cell-based; settings: chlorocebus sabaeus
[7] = test system: Vesicular stomatitis virus; assay: microbe, parasite or virus in culture; settings: HeLa
Coxsackievirus B4 [8] = type: functional, organism-based; settings: Enterovirus B, Vero
Punta Toro virus = type: functional, organism-based; settings: Vero
Coxsackievirus B4 [9] = type: functional, organism-based; settings: Enterovirus B, HeLa
[10] = test system: Human immunodeficiency virus 1; type: functional, organism-based; settings: Human immunodeficiency virus 1, 3B, CCRF-CEM
Human respirovirus 3 = type: functional, organism-based; settings: Human respirovirus 3, Vero
[11] = test system: Respiratory syncytial virus; type: functional, organism-based; settings: human respiratory syncytial virus, Long, HeLa
[12] = test system: Mammalian orthoreovirus 1; type: functional, organism-based; settings: Mammalian orthoreovirus 1, Vero
Human betaherpesvirus 5 [13] = type: functional, organism-based; settings: Human betaherpesvirus 5, Davis, HEL
Human alphaherpesvirus 2 [14] = type: functional, organism-based; settings: Human alphaherpesvirus 2, Lyons, HEL
[15] = Cytotoxicity against Huh5-2 cells assessed as reduction of cell growth; type: cell-based, Huh-5-2; settings: human
Human alphaherpesvirus 2 [16] = type: functional, organism-based; settings: Human alphaherpesvirus 2, G, HEL
[17] = Cytotoxicity against HSB2 cells assessed as alteration in cell morphology; type: cell-based, CCRF-HSB-2; settings: human, read-out: Activity
Human alphaherpesvirus 3 [18] = assay: Antiviral activity against VZV OKA in HEL cells assessed as inhibition of plaque formation; type: functional, organism-based; settings: Human alphaherpesvirus 3, OKA
[19] = Cytotoxicity against HEL cells assessed as alteration in cell morphology after 3 days; type: cell-based; settings: human, read-out: Activity
Human alphaherpesvirus 1 [20] = type: functional, organism-based; settings: Human alphaherpesvirus 1, KOS, HEL
Human alphaherpesvirus 1 [21] = type: functional, organism-based; settings: Human alphaherpesvirus 1, KOS, HEL; remark: listed apart in the source
Yellow fever virus = type: functional, organism-based; settings: Vero
Hepatitis C virus = assay: Antiviral activity against HCV in Huh5-2 cells assessed as inhibition of HCV subgenomic replicon replication; type: functional, organism-based, Hepacivirus hominis; settings: Huh-5-2
Human alphaherpesvirus 3 [22] = assay: Antiviral activity against TK- VZV 07-1 in HEL cells assessed as inhibition of plaque formation; type: functional, organism-based; settings: Human alphaherpesvirus 3, 07-1, HEL
Vaccinia virus = type: functional, organism-based; settings: Orthopoxvirus vaccinia, Lederle, HEL
[23] = Cytotoxicity against CEM cells assessed as reduction of cell growth; type: cell-based; settings: human, CEM (CCRF-CEM) cells
Human betaherpesvirus 5 [24] = type: functional, organism-based; settings: Human betaherpesvirus 5, AD169, HEL
[25] = test system: Vesicular stomatitis virus; assay: microbe, parasite or virus in culture; settings: E6SM
HEL = assay: Cytotoxicity against HEL cells assessed as inhibition of cell growth after 3 days; type: cell-based; settings: human, 72 h

Nc1ncnc2c1ncn2C[C@H](O)CO [(S)-DHPA]
EC50 [1]: > 100 µg/mL | MCC [2]: > 400 µg/mL | EC50 [3]: > 100 µg/mL | MCC [4]: > 400 µg/mL | EC50 (Sindbis virus): 240 µg/mL (≈ 1150 µM) | MCC [5]: > 100 µg/mL | MCC [6]: > 400 µg/mL | EC50 [7]: 400 µg/mL (≈ 1910 µM) | EC50 (Coxsackievirus B4 [8]): 240 µg/mL (≈ 1150 µM) | EC50 (Punta Toro virus): 48 µg/mL (≈ 229 µM) | EC50 (Coxsackievirus B4 [9]): > 400 µg/mL | EC50 [10]: > 100 µg/mL | EC50 (Human respirovirus 3): 48 µg/mL (≈ 229 µM) | EC50 [11]: > 400 µg/mL | EC50 [12]: 48 µg/mL (≈ 229 µM)

Nc1ncn(C[C@@H](CO)OCP(=O)(O)O)c(=O)n1
EC50 (Human betaherpesvirus 5 [13]): 0.054 µg/mL (≈ 0.193 µM) | EC50 [1]: 22 µg/mL (≈ 78.5 µM) | EC50 (Human alphaherpesvirus 2 [14]): 0.25 µg/mL (≈ 0.892 µM) | CC50 [15]: > 50 µg/mL | MCC [2]: > 400 µg/mL | EC50 (Human alphaherpesvirus 2 [16]): 0.35 µg/mL (≈ 1.25 µM) | MCC [17]: 16 µg/mL | EC50 (Human alphaherpesvirus 3 [18]): 0.027 µg/mL (≈ 0.0964 µM) | MCC at 72 h [19]: > 50 µg/mL | EC50 [3]: > 100 µg/mL | EC50 (Human alphaherpesvirus 1 [20]): 0.077 µg/mL (≈ 0.275 µM) | EC50 (Human alphaherpesvirus 1 [21]): 0.24 µg/mL (≈ 0.857 µM) | MCC [4]: > 400 µg/mL | EC50 (Sindbis virus): > 80 µg/mL | EC50 (Yellow fever virus): > 100 µg/mL | EC50 (Hepatitis C virus): > 50 µg/mL | MCC [5]: 20 µg/mL | MCC [6]: 400 µg/mL | EC50 (Human alphaherpesvirus 3 [22]): 0.019 µg/mL (≈ 0.0678 µM) | EC50 (Vaccinia virus): 2.56 µg/mL (≈ 9.14 µM) | EC50 [7]: > 400 µg/mL | CC50 [23]: 28 µg/mL (≈ 99.9 µM) | EC50 (Coxsackievirus B4 [8]): > 80 µg/mL | EC50 (Punta Toro virus): > 80 µg/mL | EC50 (Human betaherpesvirus 5 [24]): 0.078 µg/mL (≈ 0.278 µM) | EC50 (Coxsackievirus B4 [9]): > 400 µg/mL | EC50 [25]: > 400 µg/mL | EC50 [10]: > 100 µg/mL | Activity (HEL): >= 140 ug ml-1 | EC50 (Human respirovirus 3): > 80 µg/mL | EC50 [11]: > 400 µg/mL | EC50 [12]: > 80 µg/mL

Nc1nc(O)c2ncn(COC(CO)CO)c2n1 [GANCICLOVIR]
EC50 (Human betaherpesvirus 5 [13]): 1.5 µg/mL (≈ 5.88 µM) | EC50 (Human alphaherpesvirus 2 [16]): 0.0096 µg/mL (≈ 0.0376 µM) | MCC at 72 h [19]: > 100 µg/mL | EC50 (Human alphaherpesvirus 1 [21]): 0.91 µg/mL (≈ 3.57 µM) | Activity (HEL): 83.6 µg/mL

Nc1ncn(C[C@H](CO)OCP(=O)(O)O)c(=O)n1
EC50 (Human betaherpesvirus 5 [13]): 8.9 µg/mL (≈ 31.8 µM) | EC50 [1]: > 100 µg/mL | EC50 (Human alphaherpesvirus 2 [14]): 14.8 µg/mL (≈ 52.8 µM) | CC50 [15]: > 50 µg/mL | MCC [2]: > 200 µg/mL | EC50 (Human alphaherpesvirus 2 [16]): 12.6 µg/mL (≈ 45 µM) | EC50 (Human alphaherpesvirus 3 [18]): 13.8 µg/mL (≈ 49.3 µM) | MCC at 72 h [19]: > 100 µg/mL | EC50 [3]: > 100 µg/mL | EC50 (Human alphaherpesvirus 1 [20]): 11.8 µg/mL (≈ 42.1 µM) | EC50 (Human alphaherpesvirus 1 [21]): 17.8 µg/mL (≈ 63.5 µM) | MCC [4]: > 200 µg/mL | EC50 (Sindbis virus): > 200 µg/mL | MCC [5]: > 100 µg/mL | MCC [6]: > 200 µg/mL | EC50 (Vaccinia virus): ≥ 81.6 µg/mL | EC50 [7]: > 200 µg/mL | CC50 [23]: > 100 µg/mL | EC50 (Coxsackievirus B4 [8]): > 200 µg/mL | EC50 (Punta Toro virus): > 200 µg/mL | EC50 (Human betaherpesvirus 5 [24]): 7.3 µg/mL (≈ 26.1 µM) | EC50 (Coxsackievirus B4 [9]): > 200 µg/mL | EC50 [25]: > 200 µg/mL | EC50 [10]: > 100 µg/mL | Activity (HEL): > 100 µg/mL | EC50 (Human respirovirus 3): > 200 µg/mL | EC50 [11]: > 200 µg/mL | EC50 [12]: > 200 µg/mL

Nc1ncn(C[C@H](O)CO)c(=O)n1
EC50 (Human betaherpesvirus 5 [13]): > 100 µg/mL | EC50 [1]: > 100 µg/mL | EC50 (Human alphaherpesvirus 2 [14]): > 100 µg/mL | MCC [2]: > 100 µg/mL | EC50 (Human alphaherpesvirus 2 [16]): > 100 µg/mL | EC50 (Human alphaherpesvirus 3 [18]): > 100 µg/mL | MCC at 72 h [19]: > 100 µg/mL | EC50 [3]: > 100 µg/mL | EC50 (Human alphaherpesvirus 1 [20]): > 100 µg/mL | EC50 (Human alphaherpesvirus 1 [21]): > 100 µg/mL | MCC [4]: > 100 µg/mL | EC50 (Sindbis virus): > 100 µg/mL | MCC [5]: > 100 µg/mL | MCC [6]: > 100 µg/mL | EC50 (Human alphaherpesvirus 3 [22]): > 100 µg/mL | EC50 (Vaccinia virus): > 100 µg/mL | EC50 [7]: > 100 µg/mL | CC50 [23]: > 100 µg/mL | EC50 (Coxsackievirus B4 [8]): > 100 µg/mL | EC50 (Punta Toro virus): > 100 µg/mL | EC50 (Human betaherpesvirus 5 [24]): > 100 µg/mL | EC50 (Coxsackievirus B4 [9]): > 100 µg/mL | EC50 [25]: > 100 µg/mL | EC50 [10]: > 100 µg/mL | Activity (HEL): > 100 µg/mL | EC50 (Human respirovirus 3): > 100 µg/mL | EC50 [11]: > 100 µg/mL | EC50 [12]: > 100 µg/mL

C[C@H](Cn1cnc(N)nc1=O)OCP(=O)(O)O
EC50 (Human betaherpesvirus 5 [13]): > 100 µg/mL | EC50 [1]: > 100 µg/mL | MCC [2]: > 100 µg/mL | EC50 (Human alphaherpesvirus 2 [16]): > 100 µg/mL | EC50 (Human alphaherpesvirus 3 [18]): > 100 µg/mL | MCC at 72 h [19]: > 50 µg/mL | EC50 [3]: > 100 µg/mL | EC50 (Human alphaherpesvirus 1 [20]): > 100 µg/mL | MCC [4]: > 100 µg/mL | EC50 (Sindbis virus): > 100 µg/mL | MCC [5]: > 100 µg/mL | MCC [6]: > 100 µg/mL | EC50 (Human alphaherpesvirus 3 [22]): > 100 µg/mL | EC50 (Vaccinia virus): > 100 µg/mL | EC50 [7]: > 100 µg/mL | CC50 [23]: > 100 µg/mL | EC50 (Coxsackievirus B4 [8]): > 100 µg/mL | EC50 (Punta Toro virus): > 100 µg/mL | EC50 (Human betaherpesvirus 5 [24]): > 100 µg/mL | EC50 (Coxsackievirus B4 [9]): > 100 µg/mL | EC50 [25]: > 100 µg/mL | EC50 [10]: > 100 µg/mL | Activity (HEL): > 50 µg/mL | EC50 (Human respirovirus 3): > 100 µg/mL | EC50 [11]: > 100 µg/mL | EC50 [12]: > 100 µg/mL

Nc1ncn(CCOCP(=O)(O)O)c(=O)n1
EC50 (Human betaherpesvirus 5 [13]): 37 µg/mL (≈ 148 µM) | EC50 [1]: 7.5 µg/mL (≈ 30 µM) | EC50 (Human alphaherpesvirus 2 [14]): 39.3 µg/mL (≈ 157 µM) | CC50 [15]: > 50 µg/mL | MCC [2]: 400 µg/mL | EC50 (Human alphaherpesvirus 2 [16]): 25.8 µg/mL (≈ 103 µM) | EC50 (Human alphaherpesvirus 3 [18]): 25 µg/mL (≈ 99.9 µM) | MCC at 72 h [19]: > 100 µg/mL | EC50 [3]: > 100 µg/mL | EC50 (Human alphaherpesvirus 1 [20]): 9.9 µg/mL (≈ 39.6 µM) | EC50 (Human alphaherpesvirus 1 [21]): 17 µg/mL (≈ 68 µM) | MCC [4]: 400 µg/mL | EC50 (Sindbis virus): > 80 µg/mL | EC50 (Yellow fever virus): > 100 µg/mL | EC50 (Hepatitis C virus): > 50 µg/mL | MCC [5]: 200 µg/mL | MCC [6]: 400 µg/mL | EC50 (Human alphaherpesvirus 3 [22]): 10 µg/mL (≈ 40 µM) | EC50 (Vaccinia virus): > 100 µg/mL | EC50 [7]: > 80 µg/mL | CC50 [23]: 96 µg/mL (≈ 384 µM) | EC50 (Coxsackievirus B4 [8]): > 80 µg/mL | EC50 (Punta Toro virus): > 80 µg/mL | EC50 (Human betaherpesvirus 5 [24]): 49 µg/mL (≈ 196 µM) | EC50 (Coxsackievirus B4 [9]): > 80 µg/mL | EC50 [25]: > 80 µg/mL | EC50 [10]: > 100 µg/mL | Activity (HEL): > 50 µg/mL | EC50 (Human respirovirus 3): > 80 µg/mL | EC50 [11]: > 80 µg/mL | EC50 [12]: > 80 µg/mL

— ChEMBL document CHEMBL1142867, “Antiviral activity of triazine analogues of 1-(S)-[3-hydroxy-2-(phosphonomethoxy)propyl]cytosine (cidofovir) and related compounds” (J Med Chem, 2007)
